Test results as given in PubChem BioAssay (NCI).
“And” between values parts separate entries of the source, which are not always exact repeats. Equal entries are not always repeated.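 A five-concentration, 48-hour dose response in 96-well plates underlies each endpoint, interpolated linearly between surrounding concentrations. GI50 = concentration required for 50% inhibition of growth. TGI marks complete inhibition of growth.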

Columns and labels:
Test in all cases: NCI tumour cell line growth inhibition, 48 h
[1] = tested on: BT-549 breast
[2] = tested on: HL-60(TB) leukemia
[3] = tested on: SF-268 CNS
[4] = tested on: CAKI-1 renal
[5] = tested on: TK-10 renal
[6] = tested on: SN12C renal
[7] = tested on: LOX IMVI melanoma
[8] = tested on: HS 578T breast
[9] = tested on: SNB-75 CNS
[10] = tested on: SF-295 CNS
[11] = tested on: HT29 colon
[12] = tested on: SK-OV-3 ovarian
[13] = tested on: HOP-62 NSCLC
[14] = tested on: NCI-H23 lung
[15] = tested on: NCI-H460 lung
[16] = tested on: SK-MEL-5 melanoma
[17] = tested on: UACC-257 melanoma
[18] = tested on: MDA-MB-231 breast
[19] = tested on: CCRF-CEM leukemia
[20] = tested on: A498 renal
[21] = tested on: SW-620 colon
[22] = tested on: RPMI-8226 leukemia
[23] = tested on: 786-0 renal
[24] = tested on: U251 CNS
[25] = tested on: MALME-3M melanoma
[26] = tested on: SK-MEL-2 melanoma
[27] = tested on: SF-539 CNS
[28] = tested on: COLO 205 colon
[29] = tested on: K-562 leukemia
[30] = tested on: KM12 colon
[31] = tested on: PC-3 prostate
[32] = tested on: RXF 393 renal
[33] = tested on: IGROV1 ovarian
[34] = tested on: NCI/ADR-RES ovarian
[35] = tested on: T-47D breast
[36] = tested on: UACC-62 melanoma
[37] = tested on: HCT-15 colon
[38] = tested on: MOLT-4 leukemia
[39] = tested on: NCI-H522 lung
[40] = tested on: OVCAR-5 ovarian
[41] = tested on: EKVX NSCLC
[42] = tested on: SR leukemia
[43] = tested on: A549 NSCLC
[44] = tested on: HOP-92 NSCLC
[45] = tested on: OVCAR-4 ovarian
[46] = tested on: UO-31 renal
[47] = tested on: HCT-116 colon
[48] = tested on: SK-MEL-28 melanoma
[49] = tested on: MDA-MB-435
[50] = tested on: OVCAR-3 ovarian
[51] = tested on: DU-145 prostate
[52] = tested on: NCI-H226 lung
[53] = tested on: OVCAR-8 ovarian
[54] = tested on: HCC-2998 colon
[55] = tested on: SNB-19 CNS
[56] = tested on: MCF7 breast
[57] = tested on: ACHN renal

For `CN(C)c1ccc2nc3ccc(N)cc3[n+](-c3ccccc3)c2c1`, the GI50 [1] was 2.46 µM and 0.584 µM, the TGI [1] was 14.2 µM and 61.9 µM and the GI50 [2] was 0.578 µM. For the same compound, the TGI [2] was 15.9 µM, the GI50 [3] was 1.94 µM and 1.7 µM and the TGI [3] was 20.9 µM and 19.7 µM. For the same compound, the TGI [4] was 52.8 µM and 7.47 µM, the GI50 [5] was 3.87 µM and 2.48 µM and the TGI [5] was 27.4 µM and 28.4 µM. For the same compound, the GI50 [6] was 1.92 µM and 1.34 µM, the TGI [6] was 46 µM and 10.4 µM and the GI50 [7] was 2.65 µM and 0.515 µM. For the same compound, the TGI [7] was 18.3 µM, the GI50 [8] was 3.24 µM and 2.93 µM and the TGI [8] was 28 µM and 56.2 µM. The GI50 [9] was 2.44 µM and 2.8 µM, the TGI [9] was 17 µM and 9.52 µM and the GI50 [10] was 1.75 µM and 0.584 µM. For the same compound, the TGI [10] was 7.41 µM and 24.4 µM, the GI50 [11] was 2.74 µM and 3.19 µM and the TGI [11] was 16.1 µM and 16.2 µM. For the same compound, the GI50 [12] was 18.2 µM and 4.73 µM, the TGI [12] was 67.3 µM and > 100 µM and the GI50 [13] was 2.31 µM and 2.92 µM. The TGI [13] was 18.9 µM and 14.4 µM, the GI50 [14] was 1.73 µM and 0.461 µM and the TGI [14] was 19.8 µM and 5.1 µM. The GI50 [15] was 2.53 µM and 1.9 µM, the TGI [15] was 11.4 µM and 11.2 µM and the GI50 [16] was 1.07 µM and 0.255 µM. For the same compound, the TGI [16] was 3.02 µM and 0.827 µM, the GI50 [17] was 0.757 µM and 0.705 µM and the TGI [17] was > 25.2 µM and 3.33 µM. For the same compound, the GI50 [18] was 4.61 µM and 0.492 µM, the TGI [18] was 31.5 µM and 17.1 µM and the GI50 [19] was 4.09 µM and 1.25 µM. The TGI [19] was > 100 µM and 21.7 µM, the GI50 [20] was 3.94 µM and 19.6 µM and the TGI [20] was 37.8 µM and > 100 µM. The GI50 [21] was 2.98 µM and 1.18 µM, the TGI [21] was 31 µM and 12.2 µM and the GI50 [22] was 0.482 µM and 0.177 µM. The TGI [22] was 7.4 µM and 10 µM, the GI50 [23] was 10.9 µM and 2.19 µM and the TGI [23] was 33.6 µM and 49.2 µM. For the same compound, the GI50 [24] was 1.35 µM and 0.64 µM, the TGI [24] was 34.4 µM and 6.5 µM and the GI50 [25] was 1.57 µM and 0.56 µM. The TGI [25] was 10.1 µM and 4.59 µM, the GI50 [26] was 2.39 µM and 1.74 µM and the TGI [26] was 6.16 µM and 11.1 µM. The GI50 [27] was 2.61 µM and 0.332 µM, the TGI [27] was 13.5 µM and 6.59 µM and the GI50 [28] was 0.759 µM and 0.598 µM. For the same compound, the TGI [28] was 2.99 µM and 2.75 µM, the GI50 [29] was 1.51 µM and 0.424 µM and the TGI [29] was > 100 µM and 68.7 µM. The GI50 [30] was 1.75 µM and 1.51 µM, the TGI [30] was 10.2 µM and 26.1 µM and the TGI [31] was 31.2 µM and 3.22 µM. For the same compound, the GI50 [32] was 16.3 µM and 10.8 µM, the TGI [32] was 67.5 µM and 26.6 µM and the GI50 [33] was 3.31 µM and 1.74 µM. For the same compound, the TGI [33] was 39.3 µM and 5.53 µM, the TGI [34] was > 100 µM and 11.9 µM and the GI50 [35] was 0.457 µM and 0.662 µM. The TGI [35] was 6.5 µM and 21 µM, the GI50 [36] was 2.04 µM and 1.85 µM and the TGI [36] was 13 µM and 10.3 µM. The TGI [37] was > 100 µM and 24 µM, the GI50 [38] was 5.14 µM and 0.703 µM and the GI50 [39] was 1.72 µM. The TGI [39] was 10.5 µM, the GI50 [40] was 13.3 µM and the TGI [40] was greater than 81.7 µM. The GI50 [41] was 1.39 µM and 0.87 µM, the TGI [41] was 23.1 µM and 23 µM and the GI50 [42] was 2.44 µM and 0.533 µM. For the same compound, the TGI [43] was > 100 µM and 11.6 µM, the GI50 [44] was 1.85 µM and the TGI [44] was 8.24 µM. For the same compound, the GI50 [45] was 0.396 µM and 0.28 µM, the GI50 [46] was 23.6 µM and 4.98 µM and the TGI [46] was > 100 µM and 24.8 µM. The GI50 [47] was 2.89 µM and 0.42 µM, the TGI [47] was 20.4 µM and 2.08 µM and the GI50 [48] was 3.76 µM and 7.38 µM. The TGI [48] was 20 µM and 37.7 µM, the GI50 [49] was 1.79 µM and 1.09 µM and the TGI [49] was 8.77 µM and 2.91 µM. The GI50 [50] was 0.474 µM and 0.317 µM, the TGI [50] was 9.02 µM and 12.7 µM and the GI50 [51] was 5.32 µM and 1.95 µM. For the same compound, the TGI [51] was 33 µM and 3.96 µM, the GI50 [52] was 8.77 µM and 13 µM and the TGI [52] was 42 µM and 70.1 µM. For the same compound, the GI50 [53] was 2.02 µM and 1.07 µM, the TGI [53] was > 66 µM and 7.69 µM and the GI50 [54] was 1.87 µM and 9.25 µM. For the same compound, the TGI [54] was 16.1 µM and 41.8 µM, the GI50 [55] was 1.69 µM and the TGI [55] was 47.1 µM. For the same compound, the GI50 [56] was 0.519 µM and 0.369 µM, the TGI [56] was 30.3 µM and 3.15 µM and the TGI [57] was 76.9 µM and 31.8 µM.
